The values below come from patent publication US8865911B2, “Compounds and their use as BACE inhibitors” (Astrazeneca AB, priority 2010, dated 2014).

T1 sequence (P56817 22-460): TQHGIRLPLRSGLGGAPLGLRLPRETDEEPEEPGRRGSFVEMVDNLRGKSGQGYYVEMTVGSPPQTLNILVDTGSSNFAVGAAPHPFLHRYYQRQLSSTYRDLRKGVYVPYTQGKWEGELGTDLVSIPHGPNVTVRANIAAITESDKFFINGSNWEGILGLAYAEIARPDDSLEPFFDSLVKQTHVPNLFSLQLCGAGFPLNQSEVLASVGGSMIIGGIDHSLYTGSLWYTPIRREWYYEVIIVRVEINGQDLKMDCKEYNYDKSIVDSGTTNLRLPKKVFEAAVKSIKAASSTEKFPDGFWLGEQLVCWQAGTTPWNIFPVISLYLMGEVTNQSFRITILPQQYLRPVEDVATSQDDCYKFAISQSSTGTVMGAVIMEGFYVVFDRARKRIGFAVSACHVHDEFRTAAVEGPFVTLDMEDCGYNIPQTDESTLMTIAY

In the first assay the target is T1, human β-Secretase (Homo sapiens (Human), UniProt P56817). Description: TR-FRET assay. The assay is classed as biochemical. The settings on record: sBACE-Fc, substrate (Europium)CEVNLDAEFK(Qsy7) 100 nM, pH4.5, 15 minutes at r.t. Here is the method:
(§1) The β-secretase enzyme used in the TR-FRET is prepared as follows: The cDNA for the soluble part of the human β-Secretase (AA 1-AA 460) was cloned using the ASP2-Fc10-1-IRES-GFP-neoK mammalian expression vector. The gene was fused to the Fc domain of IgG1 (affinity tag) and stably cloned into HEK 293 cells.
The robotic systems Biomek FX and Velocity 11 were used for all liquid handling and the enzyme and substrate solutions were kept on ice until they were placed in the robotic system. Enzyme (9 μl) was added to the plate then 1 μl of compound in dimethylsulphoxide was added, mixed and pre-incubated for 10 minutes. Substrate (10 μl) was then added, mixed and the reaction proceeded for 15 minutes at r.t. The reaction was stopped with the addition of Stop solution (7 μl, NaAcetate, pH 9). […] The dimethylsulphoxide control, instead of test compound, defined the 100% activity level and 0% activity was defined by wells lacking enzyme (replaced with reaction buffer).
For orientation: Time-resolved FRET reads energy transfer from a long-lived donor to a nearby acceptor.
As to `CC1=NC2(N=C1N)c1cc(Br)ccc1CC21CCC(C(F)F)CC1` (stereo not drawn) [Example 128, 6′-Bromo-4-(difluoromethyl)-5″-methyl-3′H-dispiro[cyclohexane-1,2′-indene-1′,2″-imidazol]-4″-amine], half-maximal inhibition (IC50) was put at 2610 nM.

For `CCO[C@H]1CC[C@]2(CC1)Cc1ccc(-c3cncc(Cl)c3)cc1C21N=C(C)C(N)=N1` (stereo partly drawn) [Example 133, (1r,4r)-6′-(5-chloropyridin-3-yl)-4-ethoxy-5″-methyl-3′H-dispiro[cyclohexane-1,2′-indene-1′,2″-imidazol]-4″-amine], the IC50 (in general, the midpoint of a concentration-inhibition curve) is 25 nM.

In turn, `CCO[C@H]1CC[C@]2(CC1)Cc1ccc(-c3cc(C#N)cc(C(F)F)c3)cc1C21N=C(C)C(N)=N1` (stereo partly drawn) [Example 134, 3-[(1r,4r)-4″-Amino-4-ethoxy-5″-methyl-3′H-dispiro[cyclohexane-1,2′-indene-1′,2″-imidazol]-6′-yl]-5-(difluoromethyl)benzonitrile] came in with an IC50 of 28 nM.

Regarding `CC#Cc1cncc(-c2ccc3c(c2)C2(N=C(C)C(N)=N2)[C@]2(CC[C@H](OCC)CC2)C3)c1` (stereo partly drawn) [Example 135, (1r,4r)-4-Ethoxy-5″-methyl-6′-[5-(prop-1-yn-1-yl)pyridin-3-yl]-3′H-dispiro[cyclohexane-1,2′-indene-1′,2″-imidazol]-4″-amine], the IC50 stood at 22 nM.

Another assay addresses T1, human β-Secretase. Kind of assay: Diluted TR-FRET assay. The assay is classed as biochemical. The settings on record: values marked ^a; 50 times less enzyme, 6.5 h reaction time at r.t. in the dark; read-out: IC50 in TR-FRET assay (IC50 from the diluted FRET assay). As to the method:
as §1
The robotic systems Biomek FX and Velocity 11 were used for all liquid handling and the enzyme and substrate solutions were kept on ice until they were placed in the robotic system. Enzyme (9 μl) was added to the plate then 1 μl of compound in dimethylsulphoxide was added, mixed and pre-incubated for 10 minutes. […] The reaction was stopped with the addition of Stop solution (7 μl, NaAcetate, pH 9). […] The dimethylsulphoxide control, instead of test compound, defined the 100% activity level and 0% activity was defined by wells lacking enzyme (replaced with reaction buffer).
On to `COc1cc(C#N)cc(-c2ccc3c(c2)[C@@]2(N=C(C)C(N)=N2)[C@]2(CC[C@H](OC(F)F)CC2)C3)c1` (racemic) [Example 106, 3-[(1r,4r)-4″-Amino-4-(difluoromethoxy)-5″-methyl-3′H-dispiro[cyclohexane-1,2′-indene-1′,2″-imidazol]-6′-yl]-5-methoxybenzonitrile], for which the IC50 worked out at 1 nM.

Consider `CC#Cc1ccnc(-c2ccc3c(c2)C2(N=C(C)C(N)=N2)[C@]2(CC[C@H](OC)CC2)C3)c1` (stereo partly drawn) [Example 20b, (1r,4r)-4-Methoxy-5″-methyl-6′-[4-(prop-1-yn-1-yl)pyridin-2-yl]-3′H-dispiro[cyclohexane-1,2′-indene-1′,2″-imidazol]-4″-amine], for which the IC50 turned out to be 2.3 nM.

As for `CO[C@H]1CC[C@]2(CC1)Cc1ccc(-c3cncc(F)c3)cc1C21N=C(C)C(N)=N1` (stereo partly drawn) [Example 20f, (1r,4r)-6′-(5-Fluoropyridin-3-yl)-4-methoxy-5″-methyl-3′H-dispiro[cyclohexane-1,2′-indene-1′,2″-imidazol]-4″-amine], the IC50 stood at 5.5 nM.

In the case of `CO[C@H]1CC[C@]2(CC1)Cc1ccc(NC(=O)c3ncc(Cl)cc3C)cc1C21N=C(C)C(N)=N1` (stereo partly drawn) [Example 20w, N-[(1r,4r)-4″-Amino-4-methoxy-5″-methyl-3′H-dispiro[cyclohexane-1,2′-indene-1′,2″-imidazol]-6′-yl]-5-chloro-3-methylpyridine-2-carboxamide], the IC50 worked out at 18 nM.

Turning to `CC#Cc1cc(-c2ccc3c(c2)C2(N=C(C)C(N)=N2)[C@]2(CC[C@H](OC)CC2)C3)ccn1` (stereo partly drawn) [Example 20y, (1r,4r)-4-Methoxy-5″-methyl-6′-[2-(prop-1-yn-1-yl)pyridin-4-yl]-3′H-dispiro[cyclohexane-1,2′-indene-1′,2″-imidazol]-4″-amine], the IC50 was determined as 4.9 nM.

For `CC#Cc1cncc(-c2ccc3c(c2)C2(N=C(C)C(N)=N2)C2(CCC(OC)CC2)O3)c1` (stereo not drawn) [Example 30c], the IC50 was determined as 1.4 nM.

On to `COC1CCC2(CC1)Oc1ccc(-c3cncc(Cl)c3)cc1C21N=C(C)C(N)=N1` (stereo not drawn) [Example 30d, 5′-(5-Chloropyridin-3-yl)-4-methoxy-5′-methyldispiro[cyclohexane-1,2′-[1]benzofuran-3′,2″-imidazol]-4″-amine], for which the IC50 is 5.2 nM.

As for `CO[C@H]1CC[C@]2(CC1)Cc1ccc(-c3cc(Cl)cnc3C)cc1C21N=C(C)C(N)=N1` (stereo partly drawn) [Example 62, (1r,4r)-6′-(5-Chloro-2-methylpyridin-3-yl)-4-methoxy-5″-methyl-3′H-dispiro[cyclohexane-1,2′-indene-1′,2″-imidazol]-4″-amine], the IC50 was 19 nM.

With `CCC1=NC2(N=C1N)c1cc(-c3cncc(C#N)c3)ccc1C[C@]21CC[C@@H](OC)CC1` (stereo partly drawn) [Example 69, 5-[(1r,4r)-4″-Amino-5″-ethyl-4-methoxy-3′H-dispiro[cyclohexane-1,2′-indene-1′,2″-imidazol]-6′-yl]pyridine-3-carbonitrile], the IC50 came to 21 nM.

Regarding `CO[C@H]1CC[C@]2(CC1)Cc1ccc(-c3cc(C)cc(C#N)c3)cc1C21N=C(C)C(N)=N1` (stereo partly drawn) [Example 74, 3-[(1r,4r)-4″-Amino-4-methoxy-5″-methyl-3′H-dispiro[cyclohexane-1,2′-indene-1′,2″-imidazol]-6′-yl]-5-methylbenzonitrile], the IC50 came out at 2.6 nM.

In the case of `CO[C@H]1CC[C@]2(CC1)Cc1ccc(-c3cc(C#N)cc(C(F)F)c3)cc1[C@@]21N=C(C)C(N)=N1` [Example 86, 3-[(1r,1′R,4R)-4″-Amino-4-methoxy-5″-methyl-3′H-dispiro[cyclohexane-1,2′-indene-1′,2″-imidazol]-6′-yl]-5-(difluoromethyl)benzonitrile], the IC50 came out at 1.5 nM.

For the molecule `CO[C@H]1CC[C@]2(CC1)Cc1ccc(-c3ccccc3)cc1[C@@]21N=C(C)C(N)=N1` [Example 90, (1r,1′R,4R)-4-Methoxy-5″-methyl-6′-phenyl-3′H-dispiro[cyclohexane-1,2′-indene-1′,2″-imidazol]-4″-amine], the IC50 was 13 nM.

Take `CCc1cc(C#N)cc(-c2ccc3c(c2)C2(N=C(C)C(N)=N2)[C@]2(CC[C@H](OC)CC2)C3)c1` (stereo partly drawn) [Example 95, 3-[(1r,4r)-4″-Amino-4-methoxy-5″-methyl-3′H-dispiro[cyclohexane-1,2′-indene-1′,2″-imidazol]-6′-yl]-5-ethylbenzonitrile]: the IC50 was 5.3 nM.

Regarding `COc1ccc(F)c(-c2ccc3c(c2)[C@@]2(N=C(C)C(N)=N2)[C@]2(CC[C@H](OC)CC2)C3)c1` [Example 98, (1r,1′R,4R)-6′-(2-Fluoro-5-methoxyphenyl)-4-methoxy-5″-methyl-3′H-dispiro[cyclohexane-1,2′-indene-1′,2″-imidazol]-4″-amine], the IC50 came out at 1.5 nM.

Consider `CO[C@H]1CC[C@]2(CC1)Cc1ccc(-c3cc(F)ccc3F)cc1[C@@]21N=C(C)C(N)=N1` [Example 99, (1r,1′R,4R)-6′-(2,5-Difluorophenyl)-4-methoxy-5′-methyl-3′H-dispiro[cyclohexane-1,2′-indene-1′,2″-imidazol]-4″-amine], for which the IC50 amounted to 3.9 nM.

On to `CC1=NC2(N=C1N)c1cc(-c3cc(Cl)cc(C#N)c3)ccc1C[C@]21CC[C@@H](OC(F)F)CC1` (stereo partly drawn) [Example 108, 3-[(1r,4r)-4″-Amino-4-(difluoromethoxy)-5″-methyl-3′H-dispiro[cyclohexane-1,2′-indene-1′,2″-imidazol]-6′-yl]-5-chlorobenzonitrile], for which the IC50 amounted to 1.3 nM.

A further assay relates to sAPPβ release, SH-SY5Y cells. Description: sAPPβ release assay. Type of assay: cell-based. The conditions noted are these: Homo sapiens, SH-SY5Y, 17 h, compounds incubated 17 h, MSD detection. Here is the method:
Thaw cells and seed at a conc. of around 10000 cells/well in DMEM/F-12 with Glutamax, 10% FCS and 1% non-essential amino acids to a 384-well tissue culture treated plate, 100 μL cell susp/well. […] The cell medium was removed, followed by addition of 30 μL compound diluted in DMEM/F-12 with Glutamax, 10% FCS, 1% non-essential amino acids and 1% PeSt to a final conc. of 1% DMSO. The compounds were incubated with the cells for 17 h (overnight) at 37° C., 5% CO2. Meso Scale Discovery (MSD) plates were used for the detection of sAPPβ release. MSD sAPPβ plates were blocked in 1% BSA in Tris wash buffer (40 μL/well) for 1 h on shake at r.t. and washed 1 time in Tris wash buffer (40 μL/well). 20 μL of medium was transferred to the pre-blocked and washed MSD sAPPβ microplates, and the cell plates were further used in an ATP assay to measure cytotoxicity. The MSD plates were incubated with shaking at r.t. for 2 h and the media discarded. 10 μL detection antibody was added (1 nM) per well followed by incubation with shaking at r.t. for 2 h and then discarded. 40 μL Read Buffer was added per well and the plates were read in a SECTOR Imager.
As to `CCC1=NC2(N=C1N)c1cc(-c3cncc(Cl)c3)ccc1C[C@]21CC[C@@H](OC)CC1` (single isomer, unassigned) [Example 66 Isomer 1, (1r,4r)-6′-(5-chloropyridin-3-yl)-5″-ethyl-4-methoxy-3′H-dispiro[cyclohexane-1,2′-indene-1′,2″-imidazol]-4″-amine], the IC50 worked out at 1.6 nM.

The same assay, now with this note: compounds incubated 17 h, MSD detection.
`CC1=NC2(CC(C3CCOC(C)(C)C3)Oc3ccc(-c4cccc(Cl)c4)cc32)N=C1N` (racemic) [Example 50 Isomeric mixture 2, 6-(3-Chlorophenyl)-2-(2,2-dimethyltetrahydro-2H-pyran-4-yl)-5′-methylspiro[chroman-4,2′-imidazol]-4′-amine]: the IC50 came to 17 nM.

The molecule `CC1=NC2(CC3(CCCOC3)Oc3ccc(-c4cccc(Cl)c4)cc32)N=C1N` (single isomer, unassigned) [Example 46a Isomer 1, 6′-(3-Chlorophenyl)-5-methyl-5″,6″-dihydro-4″H-dispiro[imidazole-2,4′-chromene-2′,3″-pyran]-4-amine] came in with an IC50 of 419 nM.

Molecule `CC1=NC2(CC3(CCCOC3)Oc3ccc(-c4ccc(F)c(Cl)c4)cc32)N=C1N` (single isomer, unassigned) [Example 46b Isomer 1, 6′-(3-Chloro-4-fluorophenyl)-5-methyl-5″,6″-dihydro-4′H-dispiro[imidazole-2,4′-chromene-2′,3″-pyran]-4-amine] came in with an IC50 of 426 nM.
